Reference: patent US20220280513A1, “ENHANCING THE ANTIVIRAL EFFICACY OF RNA VIRUS INHIBITION BY COMBINATION WITH MODULATORS OF PYRIMIDINE METABOLISM” (The Board of Trustees of the Leland Stanford Junior …, priority 2019, published 2022)
pEC50, pKi: −log10 of the molar value.

Key:
DENV-2 virus [1] = test: DENV antiviral assay, DENV-Luc replication in A549 cells (FIGS. 8 and 9); format: cell-based, dengue serotype 2 (DENV-2) strain 16681; conditions: single agents, 20 μM uridine
Method: (§1) DENV-Luc reporter virus generation: The design of the pDENV-Luc infectious clone derived from dengue serotype 2 (DENV-2) strain 16681 was described in detail by Marceau et al (Marceau et al., 2016). The plasmid was linearized with Xbal and in vitro transcribed into the genomic RNA of DENV-Luc virus using the T7 Megascript Kit (Ambion) in the presence of m7G(5′)ppp(5′)G RNA Cap Structure Analog (NEB). 5 μg DENV-Luc RNA was electroporated into 2×10^6 Vero cells. The transfected cells were resuspended with Dulbecco's modified Eagle's medium (DMEM; Invitrogen) with 10% FBS and 100 U/ml penicillin-streptomycin and transferred into a T-175 flask incubated at 37° C. with 5% CO2. Supernatants were collected and replenished with fresh medium every 24 h from day 17 to 24 post-transfection, pooled together, clarified by centrifugation and stored in aliquots at −80° C. The amount of infectious DENV-Luc virus in the stock was titrated using the TCID50 assay and calculated by the Spearman & Kärber algorithm as described previously (Hierholzer and Killington, 1996).
DENV antiviral assays (For FIGS. 8 and 9): A549 cells were plated overnight at 5,000 cells/well in 96-well plates in complete DMEM and incubated for 24 h at 37° C. Cells were then treated with pyrimidine de novo synthesis inhibitors, and/or salvage inhibitors, and/or R1479 in DMEM supplemented with 20 μM uridine. Four hours after drug addition, cells were infected with DENV-2 virus at a MOI=0.1. After 72 h, DENV-Luc replication was monitored by the production of Renilla luciferase, which was measured using the Renilla-Glo Luciferase Assay System (Promega) according to the specifications of the manufacturer. For the accompanying cell viability assay, A549 cells were seeded at 5,000 cells/well in 96-well plates in complete DMEM and incubated for 24 h at 37° C. Cell were then treated with pyrimidine de novo synthesis inhibitors, and/or salvage inhibitors, and/or R1479 in DMEM supplemented with 20 μM uridine. Following 48 h treatment, cell viability was monitored by ATP levels, which was measured using the CellTiter-Glo Luciferase Assay System (Promega) according to the specifications of the manufacturer.

[2] = test system: a variety of unrelated viruses; conditions: Harvey et al. (2009); read-out: EC50, replication of a variety of unrelated viruses in vitro; cited from earlier work
DENV-2 virus [3] = test: Pilot antiviral assay, DENV-Luc replication in A549 cells (FIG. 2); format: cell-based, dengue serotype 2 (DENV-2) strain 16681; conditions: alone, 20 μM exogenous uridine
Method: We therefore focused our efforts on evaluating CPU in combination with GSK983. Using an infectious clone of dengue serotype 2 (DENV-2) strain 16681 engineered to express a luciferase reporter, the efficacy and cytotoxicity of combinations of GSK983 and CPU were assessed in infected or uninfected cultures of the A549 lung carcinoma cell line (FIG. 2). […] However, a combination of 0.2 μM GSK and 250 μM CPU inhibited ca. 50% of virus replication.
as §1
Pilot Antiviral Assays (for FIG. 2): A549 cells were plated overnight at 20,000 cells/well in 24-well plates in complete DMEM and incubated for 24 h at 37° C. Cell were then treated with pyrimidine de novo synthesis and/or salvage inhibitors in DMEM supplemented with 20 μM uridine. Four hours after drug addition, cells were infected with DENV-2 virus at a MOI=0.01. After 48 h, DENV-Luc replication was monitored by the production of Renilla luciferase, which was measured using the Renilla-Glo Luciferase Assay System (Promega) according to the specifications of the manufacturer. For the accompanying cell viability assay, A549 cells were seeded into 24-well plates at a density of 20,000 cells/well incubated for 24 h at 37° C. Cell were then treated with pyrimidine de novo synthesis and/or salvage inhibitors in DMEM supplemented with 20 μM uridine. Following 48h treatment, cells were harvested, and the density of viable cells was determined by flow cytometry (FSC/SSC) using a BD Accuri C6 Flow Cytometer.

[4] = test system: intracellular uridine and cytidine nucleotide levels; test: LC-MS/MS analysis of intracellular nucleotides in A549 cells; format: cell-based; conditions: 250 μM with 1 μM GSK983, 5 μM uridine, 6 h
Method: FIG. 7. LC-MS analysis of intracellular nucleotides. (A) LC-MS analysis of intracellular uridine and cytidine nucleotide levels after 6 h treatments. In all assays, the culture medium was supplemented with 5 μM uridine and 1 μM GSK983. Error bars represent ±S.D. of two replicates. (B) LC-MS detection of mono-, di- and tri-phosphates of CPU and 5-F-CPU in cells. LC-MS/MS was performed on an Agilent 1290 infinity II LC system tandem with 6370 triple quad mass spectrometer using ion pairing chromatography. LC separation was performed at 40° C. with a solvent flow rate of 0.25 mL/min on a Zorbax RRHD Extended-C18 column (2.1×150 mm, 1.8 μM). Buffer A contained 97% H2O, 3% MeOH, 5 mM tributylamine, 5.5 mM Acetic acid and 1 μM medronic acid with pH=5.0; Buffer B contains ca. 100% MeOH, 5 mM tributylamine, 5.5 mM Acetic acid and 5 μM medronic acid with pH=7.0 The initial mobile phase composition was 100% solvent A, and a constant or linear gradient was applied after sample injection with eluent B varying as follows: 0% at 2.5 min, 20% at 7.5 min, 45% at 14 min, 99% at 20 to 23 min, and 0% from 23.1 to 27.1 min. […] Samples were measured in the negative ESI mode with capillary voltage at −3.5 kV. […]
With optimized sampling and detection method in hand, pyrimidine nucleotide levels were measured in cells cultured with either 250 μM CPU, 5-F-CPU or 5′-F-CPU in combination with 1 μM GSK983 (FIG. 7A). […]

recombinant human UCK2 = target: T1, recombinant human UCK2 (Homo sapiens, UniProt Q9BZX2); test: In vitro enzyme activity assay with recombinant human UCK2 (PK/LDH-coupled, UV 340 nm); format: biochemical
T1 construct: 6xHis (C); made in house; host or cells: E. coli BL21(DE3)
T1 sequence (Q9BZX2 1-261): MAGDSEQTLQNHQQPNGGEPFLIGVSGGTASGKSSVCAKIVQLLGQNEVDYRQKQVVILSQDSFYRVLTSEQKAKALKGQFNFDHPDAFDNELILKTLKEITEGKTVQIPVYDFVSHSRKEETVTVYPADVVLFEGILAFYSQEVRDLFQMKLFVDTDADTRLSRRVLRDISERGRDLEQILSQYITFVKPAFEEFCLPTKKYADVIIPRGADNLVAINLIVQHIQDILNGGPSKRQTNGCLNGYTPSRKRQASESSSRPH
From the text: In order to guide our SAR studies, we developed an enzymatic assay to evaluate the inhibitory effect of each CPU analog against recombinant human UCK2, which was expressed and purified in E. coli. A continuous assay system was optimized by coupling UCK2 activity to the pyruvate kinase (PK) reaction, which in turn was coupled to lactate dehydrogenase (LDH). Overall reaction progress was continuously monitored by detecting the UV absorption change at 340 nm, which was correlated with the ATP consumption by UCK2. The effect of 250 μM of each CPU analog on UCK2 activity was evaluated in the presence of 50 μM uridine. […] We then individually measured the steady state kinetic parameters of UCK2 using uridine, CPU and 5-F-CPU as substrates. Their KM values were 86, 25, and 41 μM, and their kcat/KM values were 2.6×10^5, 1.5×10^5, and 7.3×10^4 s^−1 M^−1 (FIG. 5B).
Cloning, expression and purification of recombinant human UCK2 and CMPK1: Uridine cytidine kinase 2 (UCK2) was cloned into the pET-21a(+) vector using Ndel and Notl as restriction sites. […] The resulting plasmid was transformed into E. coli BL21(DE3) cells by electroporation, recovered in SOC at 37° C. for 1 h and plated onto LB agar plates with kanamycin overnight at 37° C. A single, isolated colony was inoculated into 30 mL LB supplemented with 50 μg/mL kanamycin and grown at 37° C. with shaking for 15 h. The next day, these cells were used to inoculate 1 L autoclaved LB with 50 μg/mL kanamycin. The flask was shaken at 37° C. When an optical density (OD600) of 0.7 was reached, protein expression was induced with 0.5 mM isopropyl β-D-1-thiogalactopyranoside (IPTG). The temperature was changed to 18° C. and flasks were shaken for an additional 15 h. The cell pellets were collected by spinning the media at 5000 rpm for 10 min. The pellets obtained were frozen by liquid nitrogen and stored in −80° C. for protein purification. Cell pellets were thawed and resuspended in lysis buffer containing Tris (40 mM, pH 7.5), NaCl (10 mM), imidazole (10 mM), DTT (1 mM). Cells were lysed by sonication and centrifuged at 25,000 g for 1 h. The supernatant was incubated with a slurry of Ni-NTA resin for 1 h at 4° C. and loaded onto a column. The nickel column wash buffer was Tris (40 mM, pH 7.5), NaCl (10 mM), DTT (1 mM) and each wash step contained increasing concentrations of imidazole (10, 50, or 250 mM). After SDS-PAGE confirmation of the protein fractions, protein was further purified using fast protein liquid chromatography (FPLC) using buffer A (50 mM Tris-HCl pH 8, 1 mM dithiothreitol (DTT), 10% glycerol) and elution buffer B (50 mM Tris-HCl pH 8, 1mM dithiothreitol (DTT), 10% glycerol with 500 mM NaCl) with changing gradient over a 20 minute from 2% to 100% Buffer B. FPLC eluents containing the protein was concentrated using Am icon centrifugal filter with 3K cut-off and the enzyme was stored in storage buffer (50 mM Tris-HCl pH 7.5, 10% glycerol). Human cytidine monophosphate kinase 1 (CMPK1) was purified as previously described (Deans et al., 2016).
In vitro enzyme activity assays with recombinant human UCK2: To continuously monitor reaction progress spectrophotometrically, ATP hydrolysis was coupled to NADH oxidation via pyruvate kinase (PK) and lactate dehydrogenase (LDH). Reactions were conducted at room temperature in 100 μL in 96-well plates (Greiner Bio-One, UV-Star, Half Area). Mixtures contained 20 mM HEPES (pH 7.2), 100 mM KCl, 2 mM MgCl2, 300 μM ATP, 0-500 μM uridine, 0-500 μM CPU analogs, 10 nM UCK2, 1 mM phosphoenolpyruvate, 500 μM NADH and 20 units/mL of PK and LDH. Progress was monitored in the linear region using a Biotek Synergy HT and kinetic and inhibition constants were determined using GraphPad Prism 7 (GraphPad Software).

Structure (SMILES) | antiviral activity as single agent (DENV-2 virus [1]) | pEC50 [2] | inhibition of replication of DENV-2 virus, single agent (DENV-2 virus [3]) | depletion of intracellular uridine and cytidine nucleotide levels [4] | UCK2 substrate or not (ATP consumption) (recombinant human UCK2; 250 μM analog in the presence of 50 μM uridine) | pKi (recombinant human UCK2; competitive inhibitors of UCK2, Lineweaver-Burk analysis)
O=C(N[C@@H]1CCCc2c1[nH]c1ccc(Cl)cc21)c1ccccn1 [GSK983] | neither GSK983 nor CPU were effective | 7.70 to 8.30 | neither GSK nor CPU alone inhibited replication | – | – | –
O=c1ccn([C@@H]2C=C(CF)[C@@H](O)[C@H]2O)c(=O)[nH]1 [5′-F-CPU, 1-((1R,4R,5S)-3-(fluoromethyl)-4,5-dihydroxycyclopent-2-en-1-yl)pyrimidine-2,4(1H,3H)-dione] | – | – | – | did not deplete | inhibitors but not substrates | 3.77
